Measurements published in ChEMBL document CHEMBL3639292, “17-hydroxy-19-nor-21-carboxylic acid-steroid Œ=-lactone derivative, use thereof, and medicament containing the derivative” (2015).

Molecular target: T1, Androgen receptor (Homo sapiens, UniProt P10275)
T1 sequence (P10275 whole entry): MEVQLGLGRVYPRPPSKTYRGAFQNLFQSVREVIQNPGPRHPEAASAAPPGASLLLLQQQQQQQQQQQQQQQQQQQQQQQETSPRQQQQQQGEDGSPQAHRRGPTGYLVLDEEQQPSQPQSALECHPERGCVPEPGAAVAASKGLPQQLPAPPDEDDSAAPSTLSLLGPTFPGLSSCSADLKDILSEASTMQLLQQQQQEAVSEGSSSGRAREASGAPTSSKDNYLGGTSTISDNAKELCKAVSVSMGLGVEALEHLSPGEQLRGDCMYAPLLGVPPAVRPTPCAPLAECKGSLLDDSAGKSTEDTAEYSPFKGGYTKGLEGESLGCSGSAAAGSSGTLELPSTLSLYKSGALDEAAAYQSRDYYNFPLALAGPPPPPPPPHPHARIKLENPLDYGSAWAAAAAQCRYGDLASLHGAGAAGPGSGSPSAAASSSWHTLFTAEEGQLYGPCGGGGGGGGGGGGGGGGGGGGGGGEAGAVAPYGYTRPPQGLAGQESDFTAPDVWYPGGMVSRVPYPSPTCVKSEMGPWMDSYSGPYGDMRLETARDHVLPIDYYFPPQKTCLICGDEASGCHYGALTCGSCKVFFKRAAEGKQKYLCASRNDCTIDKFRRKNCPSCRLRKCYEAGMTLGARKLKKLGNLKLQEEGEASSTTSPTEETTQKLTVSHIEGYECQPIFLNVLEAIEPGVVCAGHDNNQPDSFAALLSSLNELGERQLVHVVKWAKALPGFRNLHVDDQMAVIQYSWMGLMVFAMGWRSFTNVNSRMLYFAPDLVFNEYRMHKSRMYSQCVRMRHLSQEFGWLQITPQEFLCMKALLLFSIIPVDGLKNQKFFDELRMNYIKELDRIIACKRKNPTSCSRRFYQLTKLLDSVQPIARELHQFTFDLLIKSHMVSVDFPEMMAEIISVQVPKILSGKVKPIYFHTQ
Assay: Binding Assay: The test was carried out as in 1., with the following modifications: cytosol from androgen receptor-expressing insect cells (Hi5) was used, and the reference substance was 3H-testosterone.The results of the binding tests and the ratio of the competition factors CF(PR) and CR(MR) are shown in Table 1, which for comparison also shows receptor binding values of drospirenone as …

Compound	IC50 [nM]
C[C@]12CC[C@H]3[C@@H](CC4(CC4)C4=CC(=O)CC[C@@H]43)[C@@H]1CC[C@@]21C=CC(=O)O1	37
CC[C@]12CC[C@H]3[C@@H](CC4(CC4)C4=CC(=O)CC[C@@H]43)[C@@H]1CC[C@@]21C=CC(=O)O1	42
